From patent publication US20240343717A1, “MICROBIOCIDAL PYRAZOLE DERIVATIVES” (SYNGENTA CROP PROTECTION AG, priority 2021, published 2024) come the findings set out here.

Data set [1] concerns Mycosphaerella graminicola (Septoria tritici). Kind of data set: Mycosphaerella graminicola (Septoria tritici) / liquid culture (Septoria blotch). The format is cell-based. Conditions: Zymoseptoria tritici, growth inhibition photometrically 4-5 days after application, read-out: control of Mycosphaerella graminicola. Summed up: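 Conidia suspended in potato dextrose broth and added to test compound supplied in DMSO in 96-well plates. Incubated at 24 °C, and growth inhibition read photometrically 4-5 days after application.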

For data set [2], the system named is Glomerella lagenarium (Colletotrichum lagenarium). Kind of data set: Glomerella lagenarium (Colletotrichum lagenarium) / liquid culture (anthracnose). The format is cell-based. Conditions: Colletotrichum orbiculare, growth inhibition photometrically 3-4 days after application, read-out: control of Glomerella lagenarium. Summed up: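 Cryo-stored conidia in potato dextrose broth were added to test compound in DMSO. Plates were incubated at 24° C, and growth inhibition was read photometrically 3-4 days after application.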

Data set [3] has as its system Monographella nivalis (Microdochium nivale). Kind of data set: Monographella nivalis (Microdochium nivale) / liquid culture (foot rot cereals). The format is cell-based. Conditions: growth inhibition photometrically 4-5 days after application, read-out: control of Monographella nivalis. Summed up: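 Fungal conidia mixed directly into potato dextrose broth and added to test compound delivered in DMSO. Incubated at 24° C; growth inhibition read photometrically 4-5 days after application.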

Data set [4] concerns Fusarium culmorum. Kind of data set: microbe, parasite or virus in culture. The format is cell-based. Conditions: read-out: control of Fusarium culmorum.
Data set [5] deals with Botryotinia fuckeliana (Botrytis cinerea). Description: Botryotinia fuckeliana (Botrytis cinerea) / liquid culture (gray mould). The format is cell-based. Conditions: growth inhibition photometrically 3-4 days after application, read-out: control of Botryotinia fuckeliana. Summed up: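 Conidia suspended in Vogels broth and added to compound dispensed from DMSO. Incubated at 24°C, with growth inhibition measured photometrically 3–4 days later.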

In the next data set the test system is Alternaria solani. Kind of data set: Alternaria solani / tomato / leaf disc (early blight). The format is in vivo. Conditions: foliar, tomato leaf disks, sprayed 2 days before inoculation, compared to untreated control. The method, then: Example B1: Alternaria solani/Tomato/Leaf Disc (Early Blight) Tomato leaf disks cv. Baby are placed on agar in multiwell plates (24-well format) and sprayed with the formulated test compound diluted in water. The leaf disks are inoculated with a spore suspension of the fungus 2 days after application. The inoculated leaf disks are incubated at 23° C./21° C.

The test system of the next data set is Sclerotinia sclerotiorum. Description: Sclerotinia sclerotiorum / liquid culture (cottony rot). The format is cell-based. Conditions: growth inhibition photometrically 3-4 days after application, read-out: control of Sclerotinia sclerotiorum. The protocol:
Example B15: Sclerotinia sclerotiorum/Liquid Culture (Cottony Rot) Mycelia fragments of a newly grown liquid culture of the fungus are directly mixed into nutrient broth (PDB potato dextrose broth). After placing a (DMSO) solution of test compound into a microtiter plate (96-well format) the nutrient broth containing the fungal material is added. The test plates are incubated at 24° C. and the inhibition of growth is determined photometrically 3-4 days after application.

Data set [6] concerns Mycosphaerella arachidis (Cercospora arachidicola). Description: Mycosphaerella arachidis (Cercospora arachidicola) / liquid culture (early leaf spot). The format is cell-based. Conditions: growth inhibition photometrically 4-5 days after application, read-out: control of Mycosphaerella arachidis. Summed up:
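Spores taken straight from cryostorage are suspended in potato dextrose broth and added to test compound in DMSO. Plates are incubated at 24° C. Growth inhibition is scored photometrically 4-5 days after application.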

The next data set concerns Pyrenophora teres. Kind of data set: Pyrenophora teres / barley / leaf disc preventative (net blotch). The format is in vivo. Conditions: foliar, barley leaf segments, inoculated 2 days after application. Summed up:
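Barley cv. Hasso leaf segments on agar sprayed with formulated compound, inoculated with spores 2 days later. Incubated at 20 °C, 65% rh, 12 h light/dark; disease control versus untreated assessed 5–7 days after application.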

The test system of data set [7] is Blumeria graminis f. sp. tritici (Erysiphe graminis f. sp. tritici). Kind of data set: Blumeria graminis f. sp. tritici / wheat / leaf disc preventative (powdery mildew on wheat). The format is in vivo. Conditions: foliar, wheat leaf segments, inoculated 1 day after application. Summed up: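 Wheat cv. Kanzler leaf segments on agar sprayed with formulated compound in water, inoculated 1 day later by shaking mildew-infected plants overhead. Incubated at 20° C, 60% rh, 24 h dark then 12 h light/12 h dark. Percent disease control versus untreated scored 6-8 days after application.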

Data set [8] concerns Phaeosphaeria nodorum (Septoria nodorum). Description: Phaeosphaeria nodorum (Septoria nodorum) / wheat / leaf disc preventative (glume blotch). The format is in vivo. Conditions: Parastagonospora nodorum, foliar, wheat leaf segments, inoculated 2 days after application. Summed up:
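Wheat cv. Kanzler leaf segments on agar sprayed preventatively with formulated compound diluted in water, then inoculated with spore suspension 2 days after application. Incubated at 20° C, 75% rh, 12 h light/12 h dark; percent disease control versus untreated scored 5-7 days after application.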

The test system of data set [9] is Fusarium culmorum. Kind of data set: whole plant or invertebrate. Conditions: in Triticum aestivum, read-out: control of Fusarium culmorum. The format is in vivo.
The test system of data set [10] is Gibberella zeae (Fusarium graminearum). Kind of data set: whole plant or invertebrate. Conditions: in Triticum aestivum, read-out: control of Gibberella zeae. The format is in vivo.

`Cn1cc(C(C)(CNC(=O)c2cc(-c3ccc(F)cc3F)on2)c2cccc(C(F)(F)F)n2)cn1` (stereo not shown) [Compound P-106, 5-(2,4-difluorophenyl)-N-[2-(1-methylpyrazol-4-yl)-2-[6-(trifluoromethyl)-2-pyridyl]propyl] isoxazole-3-carboxamide] showed a melting point of 160 to 165 °C. For the same compound, in data set [1], the inhibition of growth at 20 ppm is no less than 80%. Also, in data set [2], the inhibition of growth at 20 ppm is no less than 80%. Also, in data set [3], the inhibition of growth at 20 ppm was no less than 80%. For the same compound, the inhibition of growth at 20 ppm in the data set with Fusarium culmorum [4] was no less than 80%. Also, the inhibition of growth at 20 ppm in data set [5] is no less than 80%. This compound displayed a pest or weed control at 200 ppm in the data set with Alternaria solani of no less than 80%. For the same compound, the inhibition of growth at 20 ppm in the data set with Sclerotinia sclerotiorum is no less than 80%. Besides, the inhibition of growth at 20 ppm in [6] is no less than 80%.
In the case of `Cn1ncc(C(CNC(=O)c2cc(-c3ccc(F)cc3F)on2)c2cccc(Cl)n2)c1Cl` (stereo not shown) [Compound P-69, N-[2-(5-chloro-1-methyl-pyrazol-4-yl)-2-(6-chloro-2-pyridyl)ethyl]-5-(2,4-difluorophenyl) isoxazole-3-carboxamide], the melting point fell in the range of 113 to 115 °C. The inhibition of growth at 20 ppm in data set [1] was no less than 80%. In the data set with Pyrenophora teres, this compound showed a pest or weed control at 200 ppm of no less than 80%. The inhibition of growth at 20 ppm in data set [2] is no less than 80%. For the same compound, the inhibition of growth at 20 ppm in [3] was no less than 80%. In addition, in data set [7], the pest or weed control at 200 ppm is no less than 80%. Moreover, the inhibition of growth at 20 ppm in [5] was no less than 80%. Further, the pest or weed control at 200 ppm in data set [8] is no less than 80%. The inhibition of growth at 20 ppm in [6] was no less than 80%.
In the case of `Cn1cc(C(C)(CNC(=O)c2nnc(-c3ccc(F)cc3F)s2)c2cccc(C(F)(F)F)n2)cn1` (stereo not shown) [Compound P-107, 5-(2,4-difluorophenyl)-N-[2-(1-methylpyrazol-4-yl)-2-[6-(trifluoromethyl)-2-pyridyl]propyl]-1,3,4-thiadiazole-2-carboxamide], the melting point was in the range of 162 to 163 °C. Also, the inhibition of growth at 20 ppm in data set [1] is no less than 80%. Moreover, the pest or weed control at 200 ppm in the data set with Pyrenophora teres was no less than 80%. Besides, in [2], the inhibition of growth at 20 ppm was no less than 80%. Also, the inhibition of growth at 20 ppm in data set [3] was no less than 80%. The compound further displayed a pest or weed control at 200 ppm in [7] of no less than 80%. Further, the inhibition of growth at 20 ppm with Fusarium culmorum [4] was no less than 80%. The inhibition of growth at 20 ppm in data set [5] is no less than 80%. Moreover, in the data set with Alternaria solani, the pest or weed control at 200 ppm is no less than 80%. In addition, in the data set with Sclerotinia sclerotiorum, the inhibition of growth at 20 ppm was no less than 80%. The inhibition of growth at 20 ppm in data set [6] is no less than 80%.
With `Cn1cc([C@@](C)(CNC(=O)c2cc(-c3ccc(F)cc3F)on2)c2cccc(Cl)n2)cn1` [Compound P-29, N-[(2S)-2-(6-chloro-2-pyridyl)-2-(1-methylpyrazol-4-yl)propyl]-5-(2,4-difluorophenyl) isoxazole-3-carboxamide], the inhibition of growth at 20 ppm (in [1]; in data set [2]; in data set [3]; in the data set on Fusarium culmorum [4]; in [5]; with Sclerotinia sclerotiorum) was no less than 80% in each case. In addition, the inhibition of growth at 20 ppm in [6] was no less than 80%. In addition, the pest or weed control at 200 ppm (with Pyrenophora teres; in the data set with Fusarium culmorum [9]; in data set [7]; with Alternaria solani; in data set [8]) was no less than 80% in each case.
As for `Cc1cccc(C(C)(CNC(=O)c2nnc(-c3ccc(F)cc3F)s2)c2cnn(C)c2Cl)n1` (stereo not shown) [Compound P-82, N-[2-(5-chloro-1-methyl-pyrazol-4-yl)-2-(6-methyl-2-pyridyl)propyl]-5-(2,4-difluorophenyl)-1,3,4-thiadiazole-2-carboxamide], the pest or weed control at 200 ppm (in [10]; with Pyrenophora teres; in data set [7]; in the data set on Alternaria solani; in [8]) was no less than 80% in each case. Further, the inhibition of growth at 20 ppm (in data set [1]; in data set [2]; in data set [3]; in the data set with Fusarium culmorum [4]; in [5]; in the data set on Sclerotinia sclerotiorum) was no less than 80% in each case. Further, the inhibition of growth at 20 ppm in [6] was no less than 80%.
For `Cn1cc(C(C)(CNC(=O)c2cc(C3CCCC3)on2)c2cccc(Cl)n2)cn1` (stereo not shown) [Compound P-80, N-[2-(6-chloro-2-pyridyl)-2-(1-methylpyrazol-4-yl)propyl]-5-cyclopentyl-isoxazole-3-carboxamide], the pest or weed control at 200 ppm (in data set [10]; in the data set on Pyrenophora teres; with Alternaria solani) was no less than 80% in each case. In addition, the inhibition of growth at 20 ppm (in data set [1]; in [2]; in [3]; with Fusarium culmorum [4]; in data set [5]; in data set [6]) was no less than 80% throughout.
In the case of `Cn1cc(C(C)(CNC(=O)c2nnc(-c3ccc(F)cc3F)s2)c2cccc(Cl)n2)cn1` (stereo not shown) [Compound P-9, N-[2-(6-chloro-2-pyridyl)-2-(1-methylpyrazol-4-yl)propyl]-5-(2,4-difluorophenyl)-1,3,4-thiadiazole-2-carboxamide], the pest or weed control at 200 ppm (in data set [10]; in the data set on Pyrenophora teres; in data set [7]; in the data set on Alternaria solani; in [8]) was no less than 80% throughout. In addition, the inhibition of growth at 20 ppm (in data set [1]; in [2]; in data set [3]; with Fusarium culmorum [4]; in data set [5]; in the data set with Sclerotinia sclerotiorum) was no less than 80% each time. Moreover, the inhibition of growth at 20 ppm in [6] is no less than 80%.
As for `Cn1cc(C(C)(CNC(=O)c2cc(-c3ccc(F)cc3F)on2)c2cccc(Br)n2)cn1` (stereo not shown) [Compound P-24, N-[2-(6-bromo-2-pyridyl)-2-(1-methylpyrazol-4-yl)propyl]-5-(2,4-difluorophenyl) isoxazole-3-carboxamide], the melting point lay in the range of 141 to 143 °C. In data set [10], the pest or weed control at 200 ppm is no less than 80%. Further, the inhibition of growth at 20 ppm in data set [1] is no less than 80%. The same compound came in with a pest or weed control at 200 ppm in the data set on Pyrenophora teres of no less than 80%. Further, the inhibition of growth at 20 ppm in data set [2] was no less than 80%. For the same compound, the inhibition of growth at 20 ppm in data set [3] is no less than 80%. Moreover, the pest or weed control at 200 ppm in data set [7] is no less than 80%. Further, in the data set on Fusarium culmorum [4], the inhibition of growth at 20 ppm is no less than 80%. In data set [5], the inhibition of growth at 20 ppm is no less than 80%. This compound also gave a pest or weed control at 200 ppm in the data set on Alternaria solani of no less than 80%. Also, in the data set on Sclerotinia sclerotiorum, the inhibition of growth at 20 ppm was no less than 80%. Also, in data set [8], the pest or weed control at 200 ppm is no less than 80%. Also, the inhibition of growth at 20 ppm in data set [6] was no less than 80%.
Regarding `Cn1cc([C@@](C)(CNC(=O)c2cc(-c3ccc(F)cc3F)on2)c2cccc(Cl)n2)cn1` [Compound P-30, N-[(2S)-2-(6-chloro-2-pyridyl)-2-(1-methylpyrazol-4-yl)propyl]-5-(2,4-difluorophenyl) isoxazole-3-carboxamide], the pest or weed control at 200 ppm in data set [10] is no less than 80%.

In general, melting point refers to the temperature, or range, at which the solid turns liquid.
